{"source": "patent US20020115704A1", "about": "“Treatment method” (priority 2000, published 2002)", "key": {"[1]": {"test_system": "5-HT1A receptors or 5-HT1D receptors", "settings": "cited from earlier work"}, "[2]": {"test_system": "ovariectomised, oestrogen+progesterone-primed female rats", "settings": "cited from earlier work"}, "males [3]": {"test_system": "males", "settings": "apomorphine: human males; cited from earlier work"}, "female Macaca arctoides": {"test_system": "female Macaca arctoides", "experiment": "Sexual behaviour of the male with the drug-treated female Macaca arctoides", "format": "in vivo", "settings": "for Sexual desire and arousal in female primates: conclusion from the male's behaviour with the treated female; for Copulations with ejaculation (FIG. 1A) / Copulations without ejaculation (FIG. 1B) / Total number of copulations, with and without ejaculation pooled (FIG. 1C) / Number of short time mounts (FIG. 1D): i.m. to the female, n=4, vs saline; for Copulations with ejaculation (FIG. 1A) / Copulations without ejaculation (FIG. 1B): atipamezole 0.03 and 0.3 mg/kg, apomorphine 0.125 and 0.25 mg/kg, or combinations, 20 min observation; for Total number of copulations, with and without ejaculation pooled (FIG. 1C) / Number of short time mounts (FIG. 1D): same doses; for Total number of copulations, with and without ejaculation pooled (FIG. 1C): atipamezole F2,11=5.00, p=0.05; for Number of short time mounts (FIG. 1D): atipamezole F2,11=7.55, p<0.03", "description": "This example investigated whether the administration a specific alpha2-adrenoceptor antagonist, atipamezole, a dopamine agonist, apomorphine, or their combination into a female Macaca arctoides produces changes in the sexual behaviour of the female with a male.\nThe experiments were performed using four female and two male Macaca arctoides monkeys born in captivity. The ages of the adult females were 13 and 16 years and those of the aged females 23 and 25 years. The ages of the males were 14 and 23 years. The females were sexually mature and with normal hormonal cycles.\nDuring the testing period, the monkeys were housed individually in stainless-steel cages. They were fed commercially available food twice each day, and water was always available. Females were weighed before the first injection of each series and doses were adjusted accordingly when appropriate. Sexual behaviour was tested between 11.00 and 16.00 h. The same test cage and testing procedure were used in all experiments. One experienced observer, blind to the treatment, viewed the animals at a distance of about 0.5 m from the cage.\nDuring the testing period, the couple being tested was housed in a single case (0.6×0.9×1.2 m) with two compartments. During the first 10 min of each session, a sliding wall made of steel bars separated the male and the female in the test cage. The monkeys could see and touch each other through this wall. Between the testing sessions, the female being tested was housed in another room with no visual contact with the male.\nAfter i.m. administration of the studied compounds to the female, the observation of the sexual behaviour began as described subsequently. Ten minutes after the end of drug administration, the sliding wall between the male and the female was pulled away and the observation of sexual activity continued for the next 20 min. At the end of the observation period, the sliding wall was replaced and the female was taken to her home cage in another room.\nThe occurrence and duration of the following parameters were observed: perineal investigation, mounting, masturbation, ejaculation, male and female grooming, eye contact, tying, yawning, self-scratching, direct male aggression towards the female and teeth grinding. A single mount leading to ejaculation was counted as ejaculation. A single mount not leading to ejaculation was counted as a short term mount. If the interval between mounts was >30 s, the mount was considered to be separate. In Macaca arctoides, male ejaculation reached in copulation or masturbation can be recognised clearly on the basis of its stereotypic manifestations as described in Linnankoski et al. (Arch. Sexual Behav. 10:207-222, 1981).\nThe experiments were performed once every other day for three days/week. In each female, the effect of atipamezole (Orion Pharma, Turku, Finland) alone (0.03 and 0.3 mg/kg and saline control) was tested during the first two weeks. The effect of apomorphine (Sigma, St.Louis, Mo.) alone (0.125 and 0.25 mg/kg and saline control) was tested during the next two weeks. The combination of a low dose of atipamezole (0.03 mg/kg) with a low dose apomorphine (0.125 mg/kg), a high dose of atipamezole (0.3 mg/kg) with a high dose of apomorphine (0.25 mg/kg), or saline control (two saline injections) was studied during the last two weeks. Owing to the difference in their pharmacokinetic properties, atipamezole (or its saline control) was always administered 10 min before testing session and apomorphine (or its saline control) 20 min before the testing session. The order of testing various doses of drugs and saline control was randomised within each two week testing period. Each dose or the combination was tested twice and the average result of these two sessions was used in final calculations. The experiments were performed in a double-blind fashion."}, "males [4]": {"test_system": "males", "settings": "cited from earlier work"}, "[5]": {"test_system": "dopaminergic, GABAergic, serotonergic (such as 5-HT1A) receptors", "settings": "cited from earlier work"}, "α2-adrenoceptor": {"test_system": "α2-adrenoceptor", "settings": "cited from earlier work"}, "menopausal women": {"test_system": "menopausal women", "settings": "oral; cited from earlier work"}, "postmenopausal women": {"test_system": "postmenopausal women", "settings": "cited from earlier work"}}, "data": [{"smiles": "COc1ccccc1N1CCN(CCN2C(=O)c3ccccc3C(C)(C)C2=O)CC1", "note": "[ARC 239]", "values": [{"measurement": "Affinity on 5-HT1A receptors or 5-HT1D receptors", "setting": "[1]", "value": "have affinity"}]}, {"smiles": "CC1c2ccccc2CN1CC1=NCCN1", "note": "(centres unmarked) [BRL 44408]", "values": [{"measurement": "Affinity on 5-HT1A receptors or 5-HT1D receptors", "setting": "[1]", "value": "have affinity"}]}, {"smiles": "c1ccc2c(c1)OCC(C1=NCCN1)O2", "note": "(centres unmarked) [Idazoxan]", "values": [{"measurement": "Affinity on 5-HT1A receptors or 5-HT1D receptors", "setting": "[1]", "value": "have affinity"}]}, {"smiles": "COC1(C2=NCCN2)COc2ccccc2O1", "note": "(centres unmarked) [RX821002, 2-methoxy idazoxan]", "values": [{"measurement": "Affinity on 5-HT1A receptors or 5-HT1D receptors", "setting": "[1]", "value": "have affinity"}]}, {"smiles": "CN1CCc2cccc3c2[C@H]1Cc1ccc(O)c(O)c1-3", "note": "[apomorphine]", "values": [{"measurement": "Sexual behaviour, lordosis response", "setting": "[2]", "value": "facilitate"}, {"measurement": "Sexual arousal i.e. erections", "setting": "males [3]", "value": "increased"}, {"measurement": "Sexual desire and arousal in female primates", "setting": "female Macaca arctoides", "value": "ineffective"}, {"measurement": "Copulations with ejaculation (FIG. 1A)", "setting": "female Macaca arctoides", "value": "failed to be statistically significant"}, {"measurement": "Copulations without ejaculation (FIG. 1B)", "setting": "female Macaca arctoides", "value": "failed to be statistically significant"}, {"measurement": "Total number of copulations, with and without ejaculation pooled (FIG. 1C)", "setting": "female Macaca arctoides", "value": "not significant"}, {"measurement": "Number of short time mounts (FIG. 1D)", "setting": "female Macaca arctoides", "value": "no significant effect"}]}, {"smiles": "CCC1(c2c[nH]cn2)Cc2ccccc2C1", "note": "[atipamezole, 4-(2-ethyl-2,3-dihydro-1H-inden-2-yl)-1H-imidazole]", "values": [{"measurement": "Sexual activity (ejaculations produced by copulation and/or masturbation)", "setting": "males [4]", "value": "increase"}, {"measurement": "Affinity for other neurotransmitter receptors (dopaminergic, GABAergic, serotonergic, benzodiazepine)", "setting": "[5]", "value": "negligible affinity"}, {"measurement": "Sexual desire and arousal in female primates", "setting": "female Macaca arctoides", "value": "increases"}, {"measurement": "Copulations with ejaculation (FIG. 1A)", "setting": "female Macaca arctoides", "value": "failed to be statistically significant"}, {"measurement": "Copulations without ejaculation (FIG. 1B)", "setting": "female Macaca arctoides", "value": "failed to be statistically significant"}, {"measurement": "Total number of copulations, with and without ejaculation pooled (FIG. 1C)", "setting": "female Macaca arctoides", "value": "significant increase"}, {"measurement": "Number of short time mounts (FIG. 1D)", "setting": "female Macaca arctoides", "value": "dose-dependent increase"}, {"measurement": "α2-/α1-adrenoceptor selectivity ratio", "setting": "α2-adrenoceptor", "value": "high"}]}, {"smiles": "COc1ccc2c(c1)CCN1C[C@H]3CCCN(S(C)(=O)=O)[C@H]3C[C@@H]21", "note": "[deleguamine, delequamine]", "values": [{"measurement": "Sexual behaviour, lordosis response", "setting": "[2]", "value": "facilitate"}, {"measurement": "Affinity on 5-HT1A receptors or 5-HT1D receptors", "setting": "[1]", "value": "have affinity"}]}, {"smiles": "Cc1ccc(N(CC2=NCCN2)c2cccc(O)c2)cc1", "note": "[phentolamine]", "values": [{"measurement": "Sexual arousal i.e. erections", "setting": "males [3]", "value": "increase"}, {"measurement": "Sexual arousal, such as self-reported lubrication", "setting": "menopausal women", "value": "mild improvement"}]}, {"smiles": "CCCc1nn(C)c2c(=O)[nH]c(-c3cc(S(=O)(=O)N4CCN(C)CC4)ccc3OCC)nc12", "note": "[sildenafil]", "values": [{"measurement": "Sexual arousal i.e. erections", "setting": "males [3]", "value": "increase"}, {"measurement": "Sexual function", "setting": "postmenopausal women", "value": "did not improve the sexual function significantly"}]}, {"smiles": "COC(=O)[C@@H]1[C@H]2C[C@H]3c4[nH]c5ccccc5c4CCN3C[C@@H]2CC[C@@H]1O", "note": "[yohimbine]", "values": [{"measurement": "Affinity for other neurotransmitter receptors (dopaminergic, GABAergic, serotonergic, benzodiazepine)", "setting": "[5]", "value": "has affinity"}]}]}
